Where two headings read alike, the source gives them in different places.
Key:
[1] = tested on: fibrosis genes in irradiated lung; experiment: Microarray analysis of mRNA transcripts in irradiated lung; assay type: in vivo, mouse; conditions: for % Normalization of gene expression, Igfbp5 / % Normalization of gene expression, Abca3 / % Normalization of gene expression, Gdf2 / % Normalization of gene expression, Cx3cl1 / % Normalization of gene expression, Retnla / % Normalization of gene expression, Nt5e / % Normalization of gene expression, Plat / % Normalization of gene expression, Ccr2 / % Normalization of gene expression, Igfbp7 / % Normalization of gene expression, Cdkn2a / % Normalization of gene expression, Apln / % Normalization of gene expression, Wisp1: irradiated mouse lung, 24 weeks after RT, 8 weeks treatment; for % Normalization of gene expression, Igfbp5: RT fold change 0.3; for % Normalization of gene expression, Abca3 / % Normalization of gene expression, Gdf2: RT fold change 0.4; for % Normalization of gene expression, Cx3cl1: RT fold change 0.5; for % Normalization of gene expression, Retnla: RT fold change 2.0; for % Normalization of gene expression, Nt5e: RT fold change 2.1; for % Normalization of gene expression, Plat: RT fold change 2.2; for % Normalization of gene expression, Ccr2: RT fold change 2.4; for % Normalization of gene expression, Igfbp7: RT fold change 2.6; for % Normalization of gene expression, Cdkn2a: RT fold change 2.7; for % Normalization of gene expression, Apln: RT fold change 5.3; for expression of the Wisp 1 and Nt5e genes: monotherapy compared to RT treatment alone
Protocol: (§1) C57B1/6 mice were irradiated with 14.5 Gy photons; full thorax, single dose. Treatment with therapeutic agent(s) (pamrevlumab, pirfenidone, and/or nintedanib) was initiated 16 weeks post-irradiation and continued for 8 weeks. Pamrevlumab (FG) was given IP, BIW, at 40 mg/kg; pirfenidone (PF) was given PO in chow, QD, at 300 mg/kg; nintedanib (ND) was given PO in chow, QD, at 100 mg/kg. Treatment with each agent alone, with combinations of two, and with a triple combination were carried out. Controls included non-irradiated mice, mice that were irradiated and not treated, and mice that were irradiated and given human IgG. Endpoint measurements were taken at 24 weeks for HRCT (lung structure), blood gas analysis (lung function), histology and gene expression analysis.
Microarray analysis of mRNA transcripts of numerous genes at 24 weeks after RT were carried out by standard techniques to compare the expression profiles of irradiated and treated animals to irradiated animals that were not further treated. The results of the later group, RT (control), were used to normalize the expression data from the other groups. Briefly, RNA from 4-7 animals per condition (RT (control), RT+hIgG, RT+FG, RT+ND, RT+PF, RT+FG+ND, RT+FG+PF, RT+ND+PF, RT+FG+ND+PF). Affymetrix 430 2.0 data was used. RT induced changes (≥1.5×, p<0.05) were filtered for treatment dependent correction (>50% correction, p<0.05). 80 RT-induced and 68 RT-suppressed transcripts were normalized at least 50% by one or more treatments. The resulting list was dominated by pamrevlumab-dependent normalization. Functional analysis indicated pamrevlumab treatment preferentially normalized RT genes known to be regulated by TGFβ and TNF.

IPF = conditions: Week 52, Phase 3 clinical study; cited from earlier work
[2] = combined clinical studies of pirfenidone, cited from earlier work
[3] = cited from earlier work
[4] = tested on: radiation-induced lung fibrosis; experiment: Mouse radiation-induced lung fibrosis model: lung volume by HRCT; assay type: in vivo; conditions: 14.5 Gy irradiated mice, treated 8 weeks from week 16, measured at 24 weeks; FIG. 4
Protocol: as §1, with “The objective of this study was to compare the activity of pamrevlumab monotherapy to either pirfenidone or nintedanib alone, and to evaluate the potential for enhanced activity of the combined agents. […] In this study, mice received thoracic irradiation (RT), followed by the therapeutic administration of the agents at 16 weeks post-irradiation when lung remodeling was evident by HRCT. After 8 weeks of drug treatment, lung density and volume were assessed by HRCT, lung function was assessed by blood gas analysis, and mice were sacrificed for histologic and gene expression analysis. C57B1/6” for “C57B1/6”, “analysis. […]” for “analysis.”

[5] = IPF patients; cited from earlier work
[6] = tested on: radiation-induced lung fibrosis; experiment: Mouse radiation-induced lung fibrosis model: lung function by blood gas analysis; assay type: in vivo; conditions: blood gas analysis at 24 weeks, compared to RT with no treatment; data not shown
Protocol: The objective of this study was to compare the activity of pamrevlumab monotherapy to either pirfenidone or nintedanib alone, and to evaluate the potential for enhanced activity of the combined agents. […] In this study, mice received thoracic irradiation (RT), followed by the therapeutic administration of the agents at 16 weeks post-irradiation when lung remodeling was evident by HRCT. After 8 weeks of drug treatment, lung density and volume were assessed by HRCT, lung function was assessed by blood gas analysis, and mice were sacrificed for histologic and gene expression analysis. C57B1/6 mice were irradiated with 14.5 Gy photons; full thorax, single dose. Treatment with therapeutic agent(s) (pamrevlumab, pirfenidone, and/or nintedanib) was initiated 16 weeks post-irradiation and continued for 8 weeks. Pamrevlumab (FG) was given IP, BIW, at 40 mg/kg; pirfenidone (PF) was given PO in chow, QD, at 300 mg/kg; nintedanib (ND) was given PO in chow, QD, at 100 mg/kg. Treatment with each agent alone, with combinations of two, and with a triple combination were carried out. Controls included non-irradiated mice, mice that were irradiated and not treated, and mice that were irradiated and given human IgG. […] The effect of the treatments on lung function was assessed by blood gas analysis (data not shown).

Structure (SMILES) | % Normalization of gene expression, Igfbp5 [1] [%] | % Normalization of gene expression, Abca3 [1] [%] | % Normalization of gene expression, Gdf2 [1] [%] | % Normalization of gene expression, Cx3cl1 [1] [%] | % Normalization of gene expression, Retnla [1] [%] | % Normalization of gene expression, Nt5e [1] [%] | % Normalization of gene expression, Plat [1] [%] | % Normalization of gene expression, Ccr2 [1] [%] | % Normalization of gene expression, Igfbp7 [1] [%] | % Normalization of gene expression, Cdkn2a [1] [%] | % Normalization of gene expression, Apln [1] [%] | % Normalization of gene expression, Wisp1 ([1]; RT fold change 6.9) [%] | % Normalization of gene expression, Wisp1 ([1]; RT fold change 11.9) [%] | expression of the Wisp 1 and Nt5e genes [1] | also measured
Cc1ccc(=O)n(-c2ccccc2)c1 [pirfenidone, 5-methyl-1-phenyl-2-(1H)-pyridone] | 27 | −20 | 10 | −8 | −7 | −58 | 0 | −20 | −6 | −37 | 41 | −21 | −78 | further induction of expression | mean UCSD-SOBQ score over placebo treated patients (IPF): no statistical significance; patients experiencing abdominal pain [2]: 24%; patients experiencing vomiting [2]: 13%; patients with skin rash [2]: 30%; patients experiencing nausea ([2]; placebo 16%): 36%; patients experiencing diarrhea ([2]; placebo 20%): 26%
COC(=O)c1ccc2c(c1)NC(=O)/C2=C(\Nc1ccc(N(C)C(=O)CN2CCN(C)CC2)cc1)c1ccccc1 [nintedanib] | 54 | −35 | 33 | −21 | −9 | −22 | −55 | 10 | 10 | 9 | 6 | −7 | −18 | further induction of expression | patients with arterial thromboembolic events ([3]; a clinical trial of nintedanib): 2.5%; patients experiencing abdominal pain ([3]; clinical trials of nintedanib): 15%; patients experiencing vomiting ([3]; clinical trials of nintedanib): 12%; patients experiencing nausea ([3]; clinical trials of nintedanib, placebo 7%): 24%; patients experiencing diarrhea ([3]; clinical trials of nintedanib, placebo 18%): 62%; radiation-induced lung volume decrease [4]: not statistically different; plasma half-life [5]: 9.5 h; O2 saturation [6]: normalized O2 saturation
